According to publication PMC4685510, “A Cell Biologist’s Field Guide to Aurora Kinase Inhibitors” (Frontiers in Oncology, 2015):

Key:
Assay in all cases: biochemical
Format in all cases: biochemical
[1] = target: 363 human kinases (including Aurora A/B/C) (Homo sapiens, UniProt P08069); conditions: IGF1R; for remaining activity at 0.1 µM: 100 nM; for remaining activity at 0.1 µM / remaining activity at 0.5 µM: read-out: % Enzyme Activity (relative to DMSO controls)
Description: (§1) However, the Aurora A/B selectivity ratios derived from our in vitro and in vivo data can be compared to prioritize inhibitors.

[2] = target: 363 human kinases (including Aurora A/B/C) (Homo sapiens, UniProt P12931); conditions: c-Src, [ATP] 100 µM; for remaining activity at 0.1 µM: 100 nM; for remaining activity at 0.1 µM / remaining activity at 0.5 µM: read-out: % Enzyme Activity (relative to DMSO controls)
Chain of 363 human kinases (including Aurora A/B/C) (Homo sapiens, UniProt P12931) (P12931 whole entry): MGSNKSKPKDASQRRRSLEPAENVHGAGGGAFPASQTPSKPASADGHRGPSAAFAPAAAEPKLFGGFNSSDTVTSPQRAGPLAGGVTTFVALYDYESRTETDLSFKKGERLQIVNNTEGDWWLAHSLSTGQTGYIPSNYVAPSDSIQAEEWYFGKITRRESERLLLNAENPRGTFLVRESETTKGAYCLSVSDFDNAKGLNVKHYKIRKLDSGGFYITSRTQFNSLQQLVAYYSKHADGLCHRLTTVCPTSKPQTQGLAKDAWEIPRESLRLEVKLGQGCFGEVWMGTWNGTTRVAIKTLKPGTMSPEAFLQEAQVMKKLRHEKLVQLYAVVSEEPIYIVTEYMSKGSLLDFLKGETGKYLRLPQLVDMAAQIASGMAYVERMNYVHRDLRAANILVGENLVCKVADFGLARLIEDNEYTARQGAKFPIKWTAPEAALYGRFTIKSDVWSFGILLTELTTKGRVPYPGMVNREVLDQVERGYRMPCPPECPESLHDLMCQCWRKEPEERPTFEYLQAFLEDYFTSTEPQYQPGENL
Description: as §1

[3] = target: 363 human kinases (including Aurora A/B/C) (Homo sapiens, UniProt P16234); conditions: PDGFRa; for remaining activity at 0.1 µM: 100 nM; for remaining activity at 0.1 µM / remaining activity at 0.5 µM: read-out: % Enzyme Activity (relative to DMSO controls)
Chain of 363 human kinases (including Aurora A/B/C) (Homo sapiens, UniProt P16234) (P16234 24-1089): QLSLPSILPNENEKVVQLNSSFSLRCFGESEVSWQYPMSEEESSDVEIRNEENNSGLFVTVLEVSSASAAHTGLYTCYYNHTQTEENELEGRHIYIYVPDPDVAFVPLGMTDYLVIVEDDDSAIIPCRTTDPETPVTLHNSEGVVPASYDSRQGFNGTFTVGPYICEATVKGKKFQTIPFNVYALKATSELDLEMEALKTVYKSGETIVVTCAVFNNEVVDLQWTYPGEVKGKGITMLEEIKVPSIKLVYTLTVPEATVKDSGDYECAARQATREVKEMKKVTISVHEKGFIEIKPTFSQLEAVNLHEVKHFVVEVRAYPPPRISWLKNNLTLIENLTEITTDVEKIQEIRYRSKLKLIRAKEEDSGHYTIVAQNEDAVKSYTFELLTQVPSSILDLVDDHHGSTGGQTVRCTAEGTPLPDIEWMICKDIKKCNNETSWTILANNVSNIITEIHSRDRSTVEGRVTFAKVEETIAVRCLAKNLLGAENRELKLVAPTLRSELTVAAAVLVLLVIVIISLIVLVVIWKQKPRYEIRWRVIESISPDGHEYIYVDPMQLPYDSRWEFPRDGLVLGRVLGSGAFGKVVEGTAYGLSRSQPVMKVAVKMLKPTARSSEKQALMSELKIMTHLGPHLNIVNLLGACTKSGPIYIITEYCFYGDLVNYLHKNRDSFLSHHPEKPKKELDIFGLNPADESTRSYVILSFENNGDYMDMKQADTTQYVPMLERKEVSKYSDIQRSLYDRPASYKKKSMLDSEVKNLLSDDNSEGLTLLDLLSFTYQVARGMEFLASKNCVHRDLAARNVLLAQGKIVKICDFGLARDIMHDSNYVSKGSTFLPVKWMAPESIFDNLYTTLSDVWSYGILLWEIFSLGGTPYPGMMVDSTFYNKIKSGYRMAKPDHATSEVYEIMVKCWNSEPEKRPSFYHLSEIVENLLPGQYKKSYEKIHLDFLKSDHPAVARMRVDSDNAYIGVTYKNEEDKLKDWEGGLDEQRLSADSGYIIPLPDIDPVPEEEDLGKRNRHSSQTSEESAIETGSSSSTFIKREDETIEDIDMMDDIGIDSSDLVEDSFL
Description: as §1

[4] = target: 363 human kinases (including Aurora A/B/C) (Homo sapiens, UniProt P17252); conditions: PKCa; for remaining activity at 0.1 µM: 100 nM; for remaining activity at 0.1 µM / remaining activity at 0.5 µM: read-out: % Enzyme Activity (relative to DMSO controls)
Description: as §1

[5] = target: 363 human kinases (including Aurora A/B/C) (Homo sapiens, UniProt P22607); conditions: FGFR3, [ATP] 30 µM; for remaining activity at 0.1 µM: 100 nM; for remaining activity at 0.1 µM / remaining activity at 0.5 µM: read-out: % Enzyme Activity (relative to DMSO controls)
Chain of 363 human kinases (including Aurora A/B/C) (Homo sapiens, UniProt P22607) (P22607 23-806): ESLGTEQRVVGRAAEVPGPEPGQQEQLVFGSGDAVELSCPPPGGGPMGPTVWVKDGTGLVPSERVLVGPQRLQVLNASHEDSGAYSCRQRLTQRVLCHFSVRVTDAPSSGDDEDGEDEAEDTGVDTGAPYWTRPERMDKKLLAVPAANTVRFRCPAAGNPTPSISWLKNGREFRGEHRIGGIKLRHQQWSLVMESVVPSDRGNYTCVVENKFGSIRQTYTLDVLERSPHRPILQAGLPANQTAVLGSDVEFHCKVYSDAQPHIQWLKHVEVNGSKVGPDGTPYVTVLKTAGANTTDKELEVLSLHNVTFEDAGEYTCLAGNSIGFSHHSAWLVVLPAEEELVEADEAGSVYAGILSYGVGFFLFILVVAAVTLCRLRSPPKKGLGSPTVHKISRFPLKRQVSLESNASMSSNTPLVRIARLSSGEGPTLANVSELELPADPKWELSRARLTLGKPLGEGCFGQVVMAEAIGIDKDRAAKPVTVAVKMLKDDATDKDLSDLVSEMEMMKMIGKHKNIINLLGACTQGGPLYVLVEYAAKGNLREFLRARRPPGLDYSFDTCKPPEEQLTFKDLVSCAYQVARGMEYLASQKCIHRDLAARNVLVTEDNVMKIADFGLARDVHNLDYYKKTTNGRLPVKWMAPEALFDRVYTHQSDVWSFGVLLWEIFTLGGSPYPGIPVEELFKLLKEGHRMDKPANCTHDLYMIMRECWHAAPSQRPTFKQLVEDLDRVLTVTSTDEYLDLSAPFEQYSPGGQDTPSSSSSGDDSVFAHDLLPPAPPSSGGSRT
Description: as §1

[6] = target: T1, 363 human kinases (including Aurora A/B/C) (Homo sapiens, UniProt P35626); conditions: GRK3; for remaining activity at 0.1 µM: 100 nM; for remaining activity at 0.1 µM / remaining activity at 0.5 µM: read-out: % Enzyme Activity (relative to DMSO controls)
T1 sequence (P35626 1-688): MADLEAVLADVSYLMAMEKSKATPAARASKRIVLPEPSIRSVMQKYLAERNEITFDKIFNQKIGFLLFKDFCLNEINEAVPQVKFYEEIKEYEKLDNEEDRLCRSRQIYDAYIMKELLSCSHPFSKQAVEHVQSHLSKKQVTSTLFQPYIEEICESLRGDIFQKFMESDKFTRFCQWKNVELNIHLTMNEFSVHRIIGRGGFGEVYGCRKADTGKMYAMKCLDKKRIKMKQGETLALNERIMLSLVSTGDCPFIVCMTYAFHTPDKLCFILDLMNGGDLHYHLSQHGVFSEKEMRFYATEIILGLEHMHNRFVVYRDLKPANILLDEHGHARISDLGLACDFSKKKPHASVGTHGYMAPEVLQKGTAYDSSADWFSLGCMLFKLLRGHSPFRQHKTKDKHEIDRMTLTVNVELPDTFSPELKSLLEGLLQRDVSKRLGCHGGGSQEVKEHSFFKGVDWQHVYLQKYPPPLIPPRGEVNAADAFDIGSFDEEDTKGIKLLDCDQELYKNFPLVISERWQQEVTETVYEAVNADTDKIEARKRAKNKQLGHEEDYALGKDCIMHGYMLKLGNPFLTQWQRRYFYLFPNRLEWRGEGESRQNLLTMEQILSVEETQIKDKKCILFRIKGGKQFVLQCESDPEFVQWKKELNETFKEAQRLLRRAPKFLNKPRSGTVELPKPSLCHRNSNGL
Description: as §1

[7] = target: T2, 363 human kinases (including Aurora A/B/C) (Homo sapiens, UniProt P54760); conditions: EPHB4, [ATP] 20 µM; for remaining activity at 0.1 µM: 100 nM; for remaining activity at 0.1 µM / remaining activity at 0.5 µM: read-out: % Enzyme Activity (relative to DMSO controls)
T2 sequence (P54760 16-987): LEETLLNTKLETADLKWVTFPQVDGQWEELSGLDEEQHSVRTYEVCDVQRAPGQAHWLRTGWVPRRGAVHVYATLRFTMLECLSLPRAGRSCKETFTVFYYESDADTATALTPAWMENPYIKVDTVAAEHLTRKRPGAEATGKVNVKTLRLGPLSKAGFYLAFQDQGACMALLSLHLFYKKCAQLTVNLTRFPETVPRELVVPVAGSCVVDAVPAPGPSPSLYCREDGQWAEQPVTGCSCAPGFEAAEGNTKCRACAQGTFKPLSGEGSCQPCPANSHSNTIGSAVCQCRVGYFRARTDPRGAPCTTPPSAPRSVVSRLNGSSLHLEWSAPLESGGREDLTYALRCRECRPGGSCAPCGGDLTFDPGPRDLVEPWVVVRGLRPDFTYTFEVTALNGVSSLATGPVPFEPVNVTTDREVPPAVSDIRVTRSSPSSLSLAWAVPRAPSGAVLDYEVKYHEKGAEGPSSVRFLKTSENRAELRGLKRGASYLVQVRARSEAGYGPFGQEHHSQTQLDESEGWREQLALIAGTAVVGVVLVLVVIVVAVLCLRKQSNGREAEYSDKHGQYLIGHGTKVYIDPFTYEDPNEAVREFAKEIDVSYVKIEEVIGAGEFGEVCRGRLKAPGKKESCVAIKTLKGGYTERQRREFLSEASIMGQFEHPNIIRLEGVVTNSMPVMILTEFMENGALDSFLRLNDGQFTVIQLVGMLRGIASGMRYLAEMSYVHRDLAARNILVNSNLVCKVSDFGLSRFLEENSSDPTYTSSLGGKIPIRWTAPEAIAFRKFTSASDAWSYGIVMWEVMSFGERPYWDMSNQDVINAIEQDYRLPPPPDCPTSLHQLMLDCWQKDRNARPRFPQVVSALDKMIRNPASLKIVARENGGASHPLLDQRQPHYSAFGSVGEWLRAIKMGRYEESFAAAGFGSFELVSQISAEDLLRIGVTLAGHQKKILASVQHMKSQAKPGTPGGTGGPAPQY
Description: as §1

[8] = target: 363 human kinases (including Aurora A/B/C) (Homo sapiens, UniProt Q00526); conditions: CDK3/cyclin E, [ATP] 30 µM; for remaining activity at 0.1 µM: 100 nM; for remaining activity at 0.1 µM / remaining activity at 0.5 µM: read-out: % Enzyme Activity (relative to DMSO controls)
Chain of 363 human kinases (including Aurora A/B/C) (Homo sapiens, UniProt Q00526) (Q00526 whole entry): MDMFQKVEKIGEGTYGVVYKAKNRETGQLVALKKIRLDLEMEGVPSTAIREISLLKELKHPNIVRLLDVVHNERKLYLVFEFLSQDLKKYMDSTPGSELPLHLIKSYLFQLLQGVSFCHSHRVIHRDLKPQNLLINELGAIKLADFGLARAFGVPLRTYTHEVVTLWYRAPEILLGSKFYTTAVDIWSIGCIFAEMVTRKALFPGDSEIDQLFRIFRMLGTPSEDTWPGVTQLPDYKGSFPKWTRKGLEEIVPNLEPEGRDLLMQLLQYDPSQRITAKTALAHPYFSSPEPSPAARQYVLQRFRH
Description: as §1

[9] = target: 363 human kinases (including Aurora A/B/C) (Homo sapiens, UniProt Q15303); conditions: ERBB4/HER4, [ATP] 2.5 µM; for remaining activity at 0.1 µM: 100 nM; for remaining activity at 0.1 µM / remaining activity at 0.5 µM: read-out: % Enzyme Activity (relative to DMSO controls)
Description: as §1

[10] = target: 363 human kinases (including Aurora A/B/C) (Homo sapiens, UniProt Q9BXA6); conditions: SSTK/TSSK6; for remaining activity at 0.1 µM: 100 nM; for remaining activity at 0.1 µM / remaining activity at 0.5 µM: read-out: % Enzyme Activity (relative to DMSO controls)
Chain of 363 human kinases (including Aurora A/B/C) (Homo sapiens, UniProt Q9BXA6) (Q9BXA6 whole entry): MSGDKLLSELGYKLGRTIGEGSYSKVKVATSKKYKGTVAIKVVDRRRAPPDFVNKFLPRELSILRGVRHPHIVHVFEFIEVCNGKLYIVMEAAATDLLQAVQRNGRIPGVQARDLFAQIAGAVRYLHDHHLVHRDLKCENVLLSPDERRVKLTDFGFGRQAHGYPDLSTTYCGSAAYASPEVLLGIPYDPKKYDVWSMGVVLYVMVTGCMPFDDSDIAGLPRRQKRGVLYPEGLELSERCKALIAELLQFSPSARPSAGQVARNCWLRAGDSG
Description: as §1

[11] = target: 363 human kinases (including Aurora A/B/C) (Homo sapiens, UniProt Q9NYL2); conditions: ZAK/MLTK; for remaining activity at 0.1 µM: 100 nM; for remaining activity at 0.1 µM / remaining activity at 0.5 µM: read-out: % Enzyme Activity (relative to DMSO controls)
Chain of 363 human kinases (including Aurora A/B/C) (Homo sapiens, UniProt Q9NYL2) (Q9NYL2 whole entry): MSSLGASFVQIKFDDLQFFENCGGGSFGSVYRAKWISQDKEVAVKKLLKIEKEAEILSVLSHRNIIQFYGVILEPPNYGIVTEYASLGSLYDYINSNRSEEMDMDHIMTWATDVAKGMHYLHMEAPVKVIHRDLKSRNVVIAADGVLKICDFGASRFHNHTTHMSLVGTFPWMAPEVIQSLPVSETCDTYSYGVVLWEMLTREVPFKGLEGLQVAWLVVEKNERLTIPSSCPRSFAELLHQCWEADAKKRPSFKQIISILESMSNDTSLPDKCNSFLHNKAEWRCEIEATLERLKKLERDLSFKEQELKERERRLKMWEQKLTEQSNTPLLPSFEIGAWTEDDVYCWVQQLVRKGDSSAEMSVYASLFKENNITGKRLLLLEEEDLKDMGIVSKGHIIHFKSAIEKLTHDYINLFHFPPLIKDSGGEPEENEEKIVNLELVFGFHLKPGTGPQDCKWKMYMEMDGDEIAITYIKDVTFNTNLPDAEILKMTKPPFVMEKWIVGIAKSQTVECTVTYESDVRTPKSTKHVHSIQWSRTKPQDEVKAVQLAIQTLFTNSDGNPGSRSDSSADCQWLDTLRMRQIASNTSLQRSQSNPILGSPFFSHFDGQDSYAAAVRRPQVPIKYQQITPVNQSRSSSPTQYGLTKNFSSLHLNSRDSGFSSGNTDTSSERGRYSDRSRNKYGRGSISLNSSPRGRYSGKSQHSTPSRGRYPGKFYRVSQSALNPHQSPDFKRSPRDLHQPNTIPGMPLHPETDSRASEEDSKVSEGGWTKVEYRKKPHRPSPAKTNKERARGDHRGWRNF
Description: as §1

[12] = target: 363 human kinases (including Aurora A/B/C) (Homo sapiens, UniProt Q9P289); conditions: MST4; for remaining activity at 0.1 µM: 100 nM; for remaining activity at 0.1 µM / remaining activity at 0.5 µM: read-out: % Enzyme Activity (relative to DMSO controls)
Description: as §1

[13] = target: 363 human kinases (including Aurora A/B/C) (Homo sapiens, UniProt Q9UBS0); conditions: p70S6Kb/RPS6KB2; for remaining activity at 0.1 µM: 100 nM; for remaining activity at 0.1 µM / remaining activity at 0.5 µM: read-out: % Enzyme Activity (relative to DMSO controls)
Chain of 363 human kinases (including Aurora A/B/C) (Homo sapiens, UniProt Q9UBS0) (Q9UBS0 whole entry): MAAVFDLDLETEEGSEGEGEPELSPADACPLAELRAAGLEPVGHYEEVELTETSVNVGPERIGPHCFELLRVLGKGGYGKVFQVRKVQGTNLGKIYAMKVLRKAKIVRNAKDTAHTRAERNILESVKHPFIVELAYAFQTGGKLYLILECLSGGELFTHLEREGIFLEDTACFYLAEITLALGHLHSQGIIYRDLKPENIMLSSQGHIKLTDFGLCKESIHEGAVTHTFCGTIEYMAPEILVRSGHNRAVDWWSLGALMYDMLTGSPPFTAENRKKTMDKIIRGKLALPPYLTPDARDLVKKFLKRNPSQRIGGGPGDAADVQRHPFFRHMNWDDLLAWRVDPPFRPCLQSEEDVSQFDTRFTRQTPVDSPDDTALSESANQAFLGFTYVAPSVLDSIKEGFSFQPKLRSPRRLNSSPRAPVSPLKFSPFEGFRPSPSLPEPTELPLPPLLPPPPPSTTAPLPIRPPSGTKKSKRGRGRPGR
Description: as §1

[14] = target: 363 human kinases (including Aurora A/B/C) (Homo sapiens, UniProt Q9UQM7); conditions: CAMK2a, [ATP] 100 µM; for remaining activity at 0.1 µM: 100 nM; for remaining activity at 0.1 µM / remaining activity at 0.5 µM: read-out: % Enzyme Activity (relative to DMSO controls)
Chain of 363 human kinases (including Aurora A/B/C) (Homo sapiens, UniProt Q9UQM7) (Q9UQM7 whole entry): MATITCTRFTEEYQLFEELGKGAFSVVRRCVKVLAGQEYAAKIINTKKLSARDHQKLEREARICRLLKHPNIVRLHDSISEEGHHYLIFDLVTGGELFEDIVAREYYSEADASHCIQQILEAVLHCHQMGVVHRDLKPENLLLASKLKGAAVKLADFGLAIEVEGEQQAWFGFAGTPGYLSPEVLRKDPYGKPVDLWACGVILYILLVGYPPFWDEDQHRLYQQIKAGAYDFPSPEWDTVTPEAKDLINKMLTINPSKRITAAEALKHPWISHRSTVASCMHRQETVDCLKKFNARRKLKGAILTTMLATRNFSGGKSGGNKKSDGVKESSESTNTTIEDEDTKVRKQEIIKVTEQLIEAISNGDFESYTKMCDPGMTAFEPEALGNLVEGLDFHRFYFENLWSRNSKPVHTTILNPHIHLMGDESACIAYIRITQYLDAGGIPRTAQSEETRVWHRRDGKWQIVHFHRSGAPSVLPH
Description: as §1

CCn1cc(-c2ccnc3[nH]c(-c4cccc(CN(C)C)c4)cc23)c(-c2ccc(NC(=O)N(C)C)cc2)n1 [GSK1070916]
remaining activity at 0.1 µM [1]: 97.9%
remaining activity at 0.1 µM [2]: 74.6%
remaining activity at 0.1 µM [3]: 94%
remaining activity at 0.1 µM [4]: 99.6%
remaining activity at 0.1 µM [5]: 63.8%
remaining activity at 0.1 µM [6]: 98.2%
remaining activity at 0.1 µM [7]: 87.9%
remaining activity at 0.1 µM [8]: 83.7%
remaining activity at 0.1 µM [9]: 87.3%
remaining activity at 0.1 µM [10]: 100%
remaining activity at 0.1 µM [11]: 101%
remaining activity at 0.1 µM [12]: 76.4%
remaining activity at 0.1 µM [13]: 110%
remaining activity at 0.1 µM [14]: 102%

O=C(O)[C@]1(Cc2cccc(Nc3nccs3)n2)CC[C@@H](Oc2cccc(Cl)c2F)CC1 [MK-5108]
remaining activity at 0.1 µM [1]: 81.1%
remaining activity at 0.5 µM ([1]; 500 nM): 43.9%
remaining activity at 0.1 µM [2]: 39.2%
remaining activity at 0.5 µM ([2]; 500 nM): 12.5%
remaining activity at 0.1 µM [3]: 97.1%
remaining activity at 0.5 µM ([3]; 500 nM): 92.6%
remaining activity at 0.1 µM [4]: 69.8%
remaining activity at 0.5 µM ([4]; 500 nM): 33.2%
remaining activity at 0.1 µM [5]: 64.9%
remaining activity at 0.5 µM ([5]; 500 nM): 31.5%
remaining activity at 0.1 µM [6]: 101%
remaining activity at 0.5 µM ([6]; 500 nM): 101%
remaining activity at 0.1 µM [7]: 29.5%
remaining activity at 0.5 µM ([7]; 500 nM): 5.58%
remaining activity at 0.1 µM [8]: 88.3%
remaining activity at 0.5 µM ([8]; 500 nM): 80.5%
remaining activity at 0.1 µM [9]: 97.1%
remaining activity at 0.5 µM ([9]; 500 nM): 77.7%
remaining activity at 0.1 µM [10]: 95.1%
remaining activity at 0.5 µM ([10]; 500 nM): 104%
remaining activity at 0.1 µM [11]: 126%
remaining activity at 0.5 µM ([11]; 500 nM): 97.9%
remaining activity at 0.1 µM [12]: 84%
remaining activity at 0.5 µM ([12]; 500 nM): 81.5%
remaining activity at 0.1 µM [13]: 100%
remaining activity at 0.5 µM ([13]; 500 nM): 99%
remaining activity at 0.1 µM [14]: 95.4%
remaining activity at 0.5 µM ([14]; 500 nM): 101%

O=C(c1cccc(Cl)c1F)N1CCN(Cc2cccc(Nc3nccs3)n2)CC1 [MK-8745]
% Enzyme Activity (relative to DMSO controls) ([1]; 500 nM): 65.00%
remaining activity at 0.5 µM ([1]; 500 nM): 66.7%
% Enzyme Activity (relative to DMSO controls) ([2]; 500 nM): 35.90%
remaining activity at 0.5 µM ([2]; 500 nM): 36.4%
% Enzyme Activity (relative to DMSO controls) ([3]; 500 nM): 99.66%
remaining activity at 0.5 µM ([3]; 500 nM): 99.8%
% Enzyme Activity (relative to DMSO controls) ([4]; 500 nM): 92.64%
remaining activity at 0.5 µM ([4]; 500 nM): 95.4%
% Enzyme Activity (relative to DMSO controls) ([5]; 500 nM): 95.75%
remaining activity at 0.5 µM ([5]; 500 nM): 95.9%
% Enzyme Activity (relative to DMSO controls) ([6]; 500 nM): 99.18%
remaining activity at 0.5 µM ([6]; 500 nM): 101%
% Enzyme Activity (relative to DMSO controls) ([7]; 500 nM): 47.01%
remaining activity at 0.5 µM ([7]; 500 nM): 47.7%
% Enzyme Activity (relative to DMSO controls) ([8]; 500 nM): 77.67%
remaining activity at 0.5 µM ([8]; 500 nM): 78.6%
% Enzyme Activity (relative to DMSO controls) ([9]; 500 nM): 93.35%
remaining activity at 0.5 µM ([9]; 500 nM): 94.9%
% Enzyme Activity (relative to DMSO controls) ([10]; 500 nM): 91.73%
remaining activity at 0.5 µM ([10]; 500 nM): 94.5%
% Enzyme Activity (relative to DMSO controls) ([11]; 500 nM): 91.42%
remaining activity at 0.5 µM ([11]; 500 nM): 91.9%
% Enzyme Activity (relative to DMSO controls) ([12]; 500 nM): 78.55%
remaining activity at 0.5 µM ([12]; 500 nM): 87.2%
% Enzyme Activity (relative to DMSO controls) ([13]; 500 nM): 97.78%
remaining activity at 0.5 µM ([13]; 500 nM): 99.3%
% Enzyme Activity (relative to DMSO controls) ([14]; 500 nM): 101.40%
remaining activity at 0.5 µM ([14]; 500 nM): 104%
